According to patent US11447466B2, “Substituted indole compounds useful as inhibitors of TLR7/8/9” (BRISTOL-MYERS SQUIBB COMPANY, priority 2017, dated 2022):

How the values were obtained:
Assay type in all cases: cell-based
human TLR7 = target: T1, human TLR7 (Homo sapiens, UniProt Q9NYK1); experiment: TLR7 inhibition reporter assay (HEK-Blue SEAP reporter, gardiquimod stimulation); conditions: HEK-Blue cells overexpressing human TLR7, SEAP reporter, gardiquimod 7.5 μM, 22 hour incubation
T1 construct: host or cells: HEK-Blue cells
T1 sequence (Q9NYK1 27-1049): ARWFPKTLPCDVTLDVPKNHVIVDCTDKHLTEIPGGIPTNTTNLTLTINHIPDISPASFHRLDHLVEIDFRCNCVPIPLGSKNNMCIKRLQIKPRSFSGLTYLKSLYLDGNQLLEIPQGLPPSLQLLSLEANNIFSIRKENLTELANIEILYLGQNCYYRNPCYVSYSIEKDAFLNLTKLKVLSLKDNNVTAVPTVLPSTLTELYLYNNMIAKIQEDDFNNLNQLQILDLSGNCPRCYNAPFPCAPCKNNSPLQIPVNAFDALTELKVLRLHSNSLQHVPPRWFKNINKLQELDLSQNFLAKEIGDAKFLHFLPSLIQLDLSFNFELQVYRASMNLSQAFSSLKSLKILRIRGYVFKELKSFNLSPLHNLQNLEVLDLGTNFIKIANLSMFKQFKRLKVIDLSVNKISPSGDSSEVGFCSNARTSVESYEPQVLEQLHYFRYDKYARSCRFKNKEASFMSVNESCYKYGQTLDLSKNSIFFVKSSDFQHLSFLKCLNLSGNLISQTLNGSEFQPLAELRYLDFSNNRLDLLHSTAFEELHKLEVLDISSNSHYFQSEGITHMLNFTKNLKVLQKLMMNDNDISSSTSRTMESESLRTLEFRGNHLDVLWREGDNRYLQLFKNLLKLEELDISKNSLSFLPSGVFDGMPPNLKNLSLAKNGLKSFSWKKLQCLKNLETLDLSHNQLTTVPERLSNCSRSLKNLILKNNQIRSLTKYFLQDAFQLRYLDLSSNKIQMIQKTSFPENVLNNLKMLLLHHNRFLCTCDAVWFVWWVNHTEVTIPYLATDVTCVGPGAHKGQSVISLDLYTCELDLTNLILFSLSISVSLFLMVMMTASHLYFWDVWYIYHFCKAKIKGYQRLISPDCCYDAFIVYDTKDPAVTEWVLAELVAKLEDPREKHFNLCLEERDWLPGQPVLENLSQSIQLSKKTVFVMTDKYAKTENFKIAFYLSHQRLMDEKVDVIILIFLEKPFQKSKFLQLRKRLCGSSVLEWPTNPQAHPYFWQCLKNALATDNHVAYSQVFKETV
In short: (§1)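 Compound treatment: 30 min, RT, 0.05 nM–50 μM final. Agonist: TLR7 gardiquimod 7.5 μM; TLR8 R848 15.9 μM; TLR9 ODN2006 5 nM. Incubation 22 h, 37 °C, 5% CO2. Readout SEAP, HEK-Blue Detection.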

human TLR8 = target: T2, human TLR8 (Homo sapiens, UniProt Q9NR97); experiment: TLR8 inhibition reporter assay (HEK-Blue SEAP reporter, R848 stimulation); conditions: HEK-Blue cells overexpressing human TLR8, SEAP reporter, R848 15.9 μM, 22 hour incubation
T2 construct: host or cells: HEK-Blue cells
T2 sequence (Q9NR97 27-1041): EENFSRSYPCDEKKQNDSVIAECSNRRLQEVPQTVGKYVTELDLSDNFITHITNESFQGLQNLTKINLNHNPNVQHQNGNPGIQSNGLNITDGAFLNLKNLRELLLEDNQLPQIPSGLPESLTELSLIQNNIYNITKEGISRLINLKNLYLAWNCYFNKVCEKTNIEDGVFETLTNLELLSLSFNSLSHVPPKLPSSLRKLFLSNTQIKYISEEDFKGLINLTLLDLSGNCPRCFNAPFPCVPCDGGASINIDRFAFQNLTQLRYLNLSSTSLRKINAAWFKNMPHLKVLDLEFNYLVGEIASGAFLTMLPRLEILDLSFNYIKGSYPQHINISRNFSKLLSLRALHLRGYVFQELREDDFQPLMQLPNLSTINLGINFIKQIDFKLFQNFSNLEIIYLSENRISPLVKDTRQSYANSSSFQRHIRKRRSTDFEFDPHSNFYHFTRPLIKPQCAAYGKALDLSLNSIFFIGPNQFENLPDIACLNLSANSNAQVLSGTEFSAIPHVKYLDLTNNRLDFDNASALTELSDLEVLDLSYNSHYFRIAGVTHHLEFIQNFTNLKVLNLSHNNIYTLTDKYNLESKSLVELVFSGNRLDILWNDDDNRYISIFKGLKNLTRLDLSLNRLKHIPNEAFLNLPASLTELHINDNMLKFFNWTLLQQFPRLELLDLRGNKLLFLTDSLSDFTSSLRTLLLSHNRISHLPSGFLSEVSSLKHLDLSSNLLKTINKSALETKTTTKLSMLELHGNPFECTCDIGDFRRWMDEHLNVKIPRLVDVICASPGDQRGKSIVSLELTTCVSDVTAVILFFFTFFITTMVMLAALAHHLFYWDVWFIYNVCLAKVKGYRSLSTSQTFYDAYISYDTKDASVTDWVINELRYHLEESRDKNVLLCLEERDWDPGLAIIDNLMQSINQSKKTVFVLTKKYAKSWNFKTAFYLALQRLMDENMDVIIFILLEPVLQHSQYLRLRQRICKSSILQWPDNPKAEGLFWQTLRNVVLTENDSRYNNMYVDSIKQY
In short: as §1

human TLR9 = target: T3, human TLR9 (Homo sapiens, UniProt Q9NR96); experiment: TLR9 inhibition reporter assay (HEK-Blue SEAP reporter, ODN2006 stimulation); conditions: HEK-Blue cells overexpressing human TLR9, SEAP reporter, ODN2006 5 nM, 22 hour incubation
T3 construct: host or cells: HEK-Blue cells
T3 sequence (Q9NR96 26-1032): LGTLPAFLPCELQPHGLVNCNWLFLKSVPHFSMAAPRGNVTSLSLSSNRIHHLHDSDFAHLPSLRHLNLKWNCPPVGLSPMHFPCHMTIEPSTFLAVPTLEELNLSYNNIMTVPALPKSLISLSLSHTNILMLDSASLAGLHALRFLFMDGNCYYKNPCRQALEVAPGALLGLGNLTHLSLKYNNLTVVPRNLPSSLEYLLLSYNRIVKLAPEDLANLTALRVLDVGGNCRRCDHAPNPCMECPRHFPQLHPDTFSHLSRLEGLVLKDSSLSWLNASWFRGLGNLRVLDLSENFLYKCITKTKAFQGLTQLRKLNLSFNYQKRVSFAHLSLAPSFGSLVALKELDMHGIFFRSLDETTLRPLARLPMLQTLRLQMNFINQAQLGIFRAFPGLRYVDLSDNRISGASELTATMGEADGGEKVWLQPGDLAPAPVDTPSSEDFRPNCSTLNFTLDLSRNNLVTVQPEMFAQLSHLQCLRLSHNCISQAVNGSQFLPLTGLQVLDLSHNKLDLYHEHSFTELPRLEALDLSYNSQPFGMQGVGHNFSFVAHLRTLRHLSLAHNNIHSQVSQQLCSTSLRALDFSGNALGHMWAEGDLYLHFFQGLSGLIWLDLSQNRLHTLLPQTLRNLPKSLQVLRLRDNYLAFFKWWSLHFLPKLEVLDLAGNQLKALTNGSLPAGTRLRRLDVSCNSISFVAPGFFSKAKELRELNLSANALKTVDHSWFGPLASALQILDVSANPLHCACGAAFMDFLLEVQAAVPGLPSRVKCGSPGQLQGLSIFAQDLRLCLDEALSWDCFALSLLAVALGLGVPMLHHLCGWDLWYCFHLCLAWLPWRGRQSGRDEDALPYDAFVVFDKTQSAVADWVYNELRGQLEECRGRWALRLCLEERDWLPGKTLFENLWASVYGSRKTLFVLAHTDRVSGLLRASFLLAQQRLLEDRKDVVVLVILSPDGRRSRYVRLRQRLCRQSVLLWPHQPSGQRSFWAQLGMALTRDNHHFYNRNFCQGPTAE
In short: as §1

SMILES	IC50 (human TLR7) [nM]	IC50 (human TLR8) [nM]	IC50 (human TLR9) [nM]
Cc1cc(-c2[nH]c3ccc(C4CCN(CCCC(F)(F)F)CC4)cc3c2C(C)C)cn(CC(C)C)c1=O [Example 110, 1-isobutyl-5-(3-isopropyl-5-(1-(4,4,4-trifluorobutyl)piperidin-4-yl)-1H-indol-2-yl)-3-methylpyridin-2(1H)-one]	56.1	163	5260
CCCN1CCC(c2ccc3[nH]c(-c4cc(-c5ccc(F)nc5)c(=O)n(C)c4)c(C(C)C)c3c2)CC1 [Example 341, 6′-fluoro-5-(3-isopropyl-5-(1-propylpiperidin-4-yl)-1H-indol-2-yl)-1-methyl-[3,3′-bipyridin]-2(1H)-one]	16.2	4.3	714
CC(C)CCN1CCC(c2ccc3[nH]c(-c4cc(-c5ccccc5)c(=O)n(C)c4)c(C(C)C)c3c2)CC1 [Example 90, 5-(5-(1-isopentylpiperidin-4-yl)-3-isopropyl-1H-indol-2-yl)-1-methyl-3-phenylpyridin-2(1H)-one]	21.7	7	1970
Cc1cc(-c2[nH]c3ccc(C4CCN(CC(O)C(C)(C)C)CC4)cc3c2C(C)C)cn(C)c1=O (stereo not drawn) [Example 325, 5-(5-(1-(2-hydroxy-3,3-dimethylbutyl)piperidin-4-yl)-3-isopropyl-1H-indol-2-yl)-1,3-dimethylpyridin-2(1H)-one]	8.7	4.3	3000
Cc1c(-c2[nH]c3ccc(C4CCNCC4)cc3c2C(C)C)cn(C)c(=O)c1N [Example 19, 3-amino-5-(3-isopropyl-5-(piperidin-4-yl)-1H-indol-2-yl)-1,4-dimethylpyridin-2(1H)-one]	25.7	39.7	792
Cc1nc(-c2[nH]c3ccc(C4CCN(C5CCOC5)CC4)cc3c2C(C)C)cn(C)c1=O (stereo not drawn) [Example 190, 5-(3-isopropyl-5-(1-(tetrahydrofuran-3-yl)piperidin-4-yl)-1H-indol-2-yl)-1,3-dimethylpyrazin-2(1H)-one]	25.6	53.8	2260
Cc1cc(-c2[nH]c3ccc(C4CCN(C(=O)CC(C)(C)O)CC4)cc3c2C(C)C)cn(C)c1=O [Example 303, 5-(5-(1-(3-hydroxy-3-methylbutanoyl)piperidin-4-yl)-3-isopropyl-1H-indol-2-yl)-1,3-dimethylpyridin-2(1H)-one]	9.6	49.9	≥ 50000
Cc1cc(-c2[nH]c3ccc(C4CCNCC4)cc3c2C(C)C)cn(CCO)c1=O [Example 30, 1-(2-hydroxyethyl)-5-(3-isopropyl-5-(piperidin-4-yl)-1H-indol-2-yl)-3-methylpyridin-2(1H)-one]	8.4	10.1	2390
CC(C)c1c(-c2cc(-c3cccc(C(N)=O)c3)c(=O)n(C)c2)[nH]c2ccc(C3CCNCC3)cc12 [Example 58, 3-(5-(3-isopropyl-5-(piperidin-4-yl)-1H-indol-2-yl)-1-methyl-2-oxo-1,2-dihydropyridin-3-yl)benzamide]	5.4	222	3480
Cc1cc(-c2[nH]c3ccc(C4CCN(C5CCOCC5)CC4)cc3c2C(C)C)cn(C)c1=O [Example 178, 5-(3-isopropyl-5-(1-(tetrahydro-2H-pyran-4-yl)piperidin-4-yl)-1H-indol-2-yl)-1,3-dimethylpyridin-2(1H)-one]	3.9	3.2	7090
CC(C)c1c(-c2cc(-c3cccnc3)c(=O)n(C)c2)[nH]c2ccc(C3CCN(C(C)C)CC3)cc12 [Example 235, 5-(3-isopropyl-5-(1-isopropylpiperidin-4-yl)-1H-indol-2-yl)-1-methyl-[3,3′-bipyridin]-2(1H)-one]	11	5.2	1770
CC(C)c1c(-c2cc(-c3cncnc3)c(=O)n(C)c2)[nH]c2ccc(C3CCN(C)CC3)cc12 [Example 246, 5-(3-isopropyl-5-(1-methylpiperidin-4-yl)-1H-indol-2-yl)-1-methyl-3-(pyrimidin-5-yl)pyridin-2(1H)-one]	2.9	1.7	387
Cc1c(-c2[nH]c3ccc(C4CCN(C(C)C)CC4)cc3c2C(C)C)cn(C)c(=O)c1C [Example 212, 5-(3-isopropyl-5-(1-isopropylpiperidin-4-yl)-1H-indol-2-yl)-1,3,4-trimethylpyridin-2(1H)-one]	17.1	17.4	12600
CCCN1CCC(c2ccc3[nH]c(-c4cc(-c5cccc(OC)c5)c(=O)n(C)c4)c(C(C)C)c3c2)CC1 [Example 340, 5-(3-isopropyl-5-(1-propylpiperidin-4-yl)-1H-indol-2-yl)-3-(3-methoxyphenyl)-1-methylpyridin-2(1H)-one]	4.5	16.6	1210
